Assay results: US20150374676A1, “HELICASE-PRIMASE INHIBITORS FOR USE IN A METHOD OF TREATING ALZHEIMER'S DISEASE” (AICURIS GMBH & CO. KG, priority 2013, published 2015)

Assays:
[1] = cited from earlier work
[2] = test system: HSV-1; settings: HSV-1-infected cell cultures; cited from earlier work
[3] = test system: HSV-1; assay: HSV-1 infected SH-SY5Y cells, immunocytochemistry for HSV-1 proteins, Aβ and P-tau; format: cell-based, herpes simplex virus type 1; settings: MOI 0.01 pfu/cell, 24 h; for staining for Aβ / staining for P-tau: 0.025-25 μM
Experimental: (§1) SH-SY5Y cells were infected with HSV-1 at 0.01 plaque forming units (pfu) per cell [pfu/cell] for 24 hours and treated with varying concentrations of ACV and/or the exemplary compound according to Formula (I). Subsequently, cells were fixed and examined for HSV-1 proteins (A), Aβ (B) and P-tau (C) by immunocytochemistry. 1=vehicle; 2-5=increasing concentrations of the exemplary compound according to Formula (I) [0.025, 0.25, 2.5, 25 μM]; 6-9=increasing concentrations of acyclovir [0.025, 0.25, 2.5, 25 μM].
(§2) The inventors have compared the efficacy of the exemplary compound according to Formula (I) with that of ACV in respect to Aβ and P-tau accumulation in HSV-1 infected cells. African green monkey kidney (Vero) cells or human neuroblastoma (SH-SY5Y) cells were infected with HSV-1 at a multiplicity of infection (MOI) of 0.01 plaque forming units (pfu) per cell [pfu/cell] for 24 hours and were treated with the exemplary compound according to Formula (I), or ACV. The antiviral agents were added at the time of infection and remained throughout the infection. Infection led to typical cytopathic effects (clustering of infected cells positive for HSV-1 protein staining (FIGS. 1A and 2 A, panel 1)).

[4] = in vivo; cited from earlier work
[5] = test system: HSV-1; assay: HSV-1 infected Vero cells, immunocytochemistry for HSV-1 proteins, Aβ and P-tau; format: cell-based, herpes simplex virus type 1; settings: MOI 0.01 pfu/cell, 24 h; for staining for Aβ / staining for P-tau: 0.025-25 μM
Experimental: as §1, with “Vero” for “SH-SY5Y”, “Aβ(B)” for “Aβ (B)”
as §2

[6] = safety and tolerability in single and multiple dose phase I trials; format: in vivo, human; settings: healthy male volunteers, single dose and daily doses for 21 days
Experimental: The results were compared with the effective concentration of the free base of N-[5-(aminosulfonyl)-4-methyl-1,3-thiazol-2-yl]-N-methyl-2-[4-(2-pyridinyl)phenyl]acetamide in cell culture and correlated to exposures reached in healthy male volunteers in single and multiple dose phase I trials (see FIGS. 4-7).
(§3) In healthy male volunteers these plasma concentrations were covered by a single dose of 40 mg as free base equivalent to the crystalline mono mesylate monohydrate salt of N-[5-(aminosulfonyl)-4-methyl-1,3-thiazol-2-yl]-N-methyl-2-[4-(2-pyridinyl)phenyl]-acetamide (see FIG. 4) and at steady state by daily doses of 25 mg as free base equivalent (see FIG. 5) for 21 days.

[7] = test system: HSV; assay: murine HSV skin infection model; format: in vivo; settings: oral doses of 5 mg/kg or higher once daily for four days; data not shown
Experimental: To assess the pharmacokinetic/pharmacodynamic profile the effective dose of the specific free base of N-[5-(aminosulfonyl)-4-methyl-1,3-thiazol-2-yl]-N-methyl-2-[4-(2-pyridinyl)phenyl]-acetamide was validated in a murine HSV skin infection model and associated plasma concentrations were determined (data not shown).
as §3

[8] = absolute bioavailability after oral administration; settings: in vivo; oral administration of the mono mesylate monohydrate salt in a composition of the invention; human; read-out: absolute bioavailability of the free base
Text: In yet another aspect of the invention said absolute bioavailability of 70%±30% of the resultant free base form of N-[5-(aminosulfonyl)-4-methyl-1,3-thiazol-2-yl]-N-methyl-2-[4-(2-pyridinyl)-phenyl]acetamide is achieved in a human.
In the context of the present invention the term “bioavailability” denotes a subcategory of absorption. Bioavailability denotes the fraction of an administered oral dose of the crystalline N-[5-(aminosulfonyl)-4-methyl-1,3-thiazol-2-yl]-N-methyl-2-[4-(2-pyridinyl)-phenyl]acetamide mono methanesulfonic acid monohydrate of the invention that reaches the systemic circulation of a subject as the resultant free base form of N-[5-(aminosulfonyl)-4-methyl-1,3-thiazol-2-yl]-N-methyl-2-[4-(2-pyridinyl)-phenyl]acetamide. By definition, when a medication is administered intravenously, its bioavailability is 100%. However, when a medication is administered via other routes (such as orally), its bioavailability generally decreases (due to incomplete absorption and first-pass metabolism) or may vary from individual to individual. Bioavailability is one of the essential tools in pharmacokinetics, as bioavailability must be considered when calculating dosages for non-intravenous routes of administration.

[9] = higher concentrations 0.25, 2.5, 25 μM

In the case of `Nc1nc2c(ncn2COCCO)c(=O)[nH]1` [ACV, acyclovir, reference compound], the water solubility [1] is listed as “poorly water-soluble”, the “HSV-1 induced accumulation of Aβ and P-tau” value [2] is listed as “reduced the virus-induced accumulation of Aβ and P-tau” and the “cluster size of HSV-1 infected cells (HSV-1 protein staining)” value (from here on “cluster size of HSV-1 infected cells”) ([3]; 0.025 μM) is listed as “little effect on cluster sizes”. The “staining for Aβ” value [3] was “still visible at higher concentrations of ACV”, the “staining for P-tau” value [3] was “still visible at higher concentrations of ACV” and the “cluster size of HSV-1 infected cells” value [3, 9] was “reduced their sizes but less so than did the treatment with equimolar exemplary compound according to Formula (I)”. For the same compound, the oral bioavailability [4] was 15-30%, the “cluster size of HSV-1 infected cells” value ([5]; 0.025 μM) was “little effect on cluster sizes” and the “staining for Aβ” value [5] was “still visible at higher concentrations of ACV”. For the same compound, the “staining for P-tau” value [5] was “still visible at higher concentrations of ACV” and the “cluster size of HSV-1 infected cells” value [5, 9] was “reduced their sizes but less so than did the treatment with equimolar exemplary compound according to Formula (I)”.

In the case of `Cc1nc(N(C)C(=O)Cc2ccc(-c3ccccn3)cc2)sc1S(N)(=O)=O` [N-[5-(aminosulfonyl)-4-methyl-1,3-thiazol-2-yl]-N-methyl-2-[4-(2-pyridinyl)phenyl]acetamid], the safety and tolerability [6] was “safe and well tolerated up to the highest dose tested”, the “suppression of murine HSV skin infection” value [7] was “completely suppressed” and the “antibody staining to HSV-1 proteins, Aβ and P-tau” value [3] was “total or almost total removal of antibody staining”. The “cluster size of HSV-1 infected cells” value ([3]; 0.025 μM) was “slightly smaller compared to control”, the “staining for Aβ” value [3] was “reduced” and the “staining for P-tau” value [3] was “reduced”. For the same compound, the “cluster size of HSV-1 infected cells” value [3, 9] was “clusters disappear and only occasionally infected cells could be detected”, the “antibody staining to HSV-1 proteins, Aβ and P-tau” value [5] was “total or almost total removal of antibody staining” and the “cluster size of HSV-1 infected cells” value ([5]; 0.025 μM) was “slightly smaller compared to control”. For the same compound, the “staining for Aβ” value [5] was “reduced”, the “staining for P-tau” value [5] was “reduced” and the “cluster size of HSV-1 infected cells” value [5, 9] was “clusters disappear and only occasionally infected cells could be detected”. It also gave a bioavailability [8] of 70%.
